ChEMBL document CHEMBL1201862, “PubChem BioAssay data set” (2004)
Blank lines part the entries; values can stand above or below the compound they belong to. Calls of active or inactive are those of the source.

Columns and labels:
[1] = biological target: T1, Corticotropin-releasing factor receptor 2/Corticotropin-releasing factor-binding protein (Homo sapiens, UniProt P24387+Q13324); experiment: Dose Response confirmation of uHTS hits for small molecule antagonists of the CRF-binding protein and CRF-R2 receptor complex.; assay type: functional; conditions: read-out: IC50_Mean
T1 sequence (Q13324 whole entry): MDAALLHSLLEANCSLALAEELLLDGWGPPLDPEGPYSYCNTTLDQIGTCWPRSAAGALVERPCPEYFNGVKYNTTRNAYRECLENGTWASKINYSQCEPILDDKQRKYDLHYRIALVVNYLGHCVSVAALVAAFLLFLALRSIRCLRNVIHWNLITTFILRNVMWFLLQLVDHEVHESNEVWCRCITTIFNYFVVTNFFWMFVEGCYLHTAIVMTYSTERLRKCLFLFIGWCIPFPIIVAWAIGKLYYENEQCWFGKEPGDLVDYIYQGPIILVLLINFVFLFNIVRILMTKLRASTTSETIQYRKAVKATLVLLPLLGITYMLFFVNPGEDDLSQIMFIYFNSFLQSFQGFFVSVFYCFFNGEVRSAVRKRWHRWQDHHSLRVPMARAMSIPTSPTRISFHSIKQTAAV
T1 sequence (P24387 whole entry): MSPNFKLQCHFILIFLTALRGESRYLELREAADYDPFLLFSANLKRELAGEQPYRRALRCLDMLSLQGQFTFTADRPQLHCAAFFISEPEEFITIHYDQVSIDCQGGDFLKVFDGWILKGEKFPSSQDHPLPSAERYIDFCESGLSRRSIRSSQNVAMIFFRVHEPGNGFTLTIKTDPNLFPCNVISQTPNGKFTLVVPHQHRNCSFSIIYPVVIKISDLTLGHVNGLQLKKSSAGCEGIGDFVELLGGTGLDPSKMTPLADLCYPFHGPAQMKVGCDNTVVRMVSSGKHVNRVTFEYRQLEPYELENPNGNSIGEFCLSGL

[2] = biological target: T1, Corticotropin-releasing factor receptor 2/Corticotropin-releasing factor-binding protein; experiment: activators of CRF receptor 2 with binding protein – uHTS hits, confirmation (AID 602473); assay type: functional; conditions: read-out: EC50_Mean
[3] = CRF-BP/CRF-R2 complex antagonists, dose response, cell-based, uHTS hits, 384-well (AID 651639); assay type: functional, Homo sapiens; conditions: read-out: IC50_Mean
[4] = inhibitors of intracellular T. cruzi replication, confirmation, NIH3T3 host cells, beta-gal luminescence (AID 2044); assay type: functional, cell-based;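 note: intracellular parasites grown in NIH/3T3 mouse fibroblasts as host cells; luminescent beta-galactosidase reporter signal from transgenic T. cruzi replicating inside host cells; inhibitors lower the luminescence signal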
[5] = cytotoxicity toward NIH3T3 fibroblasts, dose response, counter-screen, cell-based, ATP luminescence, mouse fibroblasts (AID 2010); assay type: functional;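 note: cells exposed to compound for about 90 hours before reading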
[6] = cells
[7] = biological target: T2, Sentrin-specific protease 8 (Homo sapiens, UniProt Q96LD8); assay type: functional
T2 sequence (Q96LD8 whole entry): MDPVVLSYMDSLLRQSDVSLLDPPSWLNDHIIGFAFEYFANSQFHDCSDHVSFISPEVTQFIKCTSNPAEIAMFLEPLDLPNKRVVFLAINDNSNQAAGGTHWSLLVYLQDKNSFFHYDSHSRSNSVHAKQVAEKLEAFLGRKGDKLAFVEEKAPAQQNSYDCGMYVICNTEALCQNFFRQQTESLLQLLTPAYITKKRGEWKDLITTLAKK

[8] = biological target: T2, Sentrin-specific protease 8; assay type: functional; remark: listed apart in the source
[9] = system: INS1; experiment: beta cell apoptosis inhibitors, cytokine rescue, dose response, luminescence, retest (AID 449756); assay type: functional, cell-based; conditions: Rattus norvegicus;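 note: cell death triggered by IL-1 beta plus TNF-alpha plus IFN-gamma mixture; protective hits raise ATP signal compared with cytokine alone wells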
[10] = biological target: Photoreceptor-specific nuclear receptor (Homo sapiens, UniProt Q9Y5X4); assay type: functional, cell-based;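 note: CHO-S cells with Gal4-NCOR and VP16-NR2E3 two-hybrid luciferase reporter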
Photoreceptor-specific nuclear receptor, sequence (Q9Y5X4 whole entry, the tested form may be a part): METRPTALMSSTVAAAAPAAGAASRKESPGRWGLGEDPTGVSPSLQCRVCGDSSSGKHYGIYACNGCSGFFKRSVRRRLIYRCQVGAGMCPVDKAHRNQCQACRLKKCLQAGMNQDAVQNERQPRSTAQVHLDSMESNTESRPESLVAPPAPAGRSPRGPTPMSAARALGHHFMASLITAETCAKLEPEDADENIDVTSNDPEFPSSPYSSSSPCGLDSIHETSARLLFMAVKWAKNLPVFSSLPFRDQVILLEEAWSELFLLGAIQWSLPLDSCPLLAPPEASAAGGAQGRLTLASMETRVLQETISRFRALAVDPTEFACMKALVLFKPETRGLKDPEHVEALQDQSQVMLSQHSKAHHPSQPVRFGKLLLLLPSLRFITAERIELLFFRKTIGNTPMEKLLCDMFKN

[11] = biological target: Cytochrome P450 3A4 (Homo sapiens, UniProt P08684);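 note: CYP3A4 tested as one member of a cytochrome P450 panel screen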
Cytochrome P450 3A4, sequence (P08684 whole entry): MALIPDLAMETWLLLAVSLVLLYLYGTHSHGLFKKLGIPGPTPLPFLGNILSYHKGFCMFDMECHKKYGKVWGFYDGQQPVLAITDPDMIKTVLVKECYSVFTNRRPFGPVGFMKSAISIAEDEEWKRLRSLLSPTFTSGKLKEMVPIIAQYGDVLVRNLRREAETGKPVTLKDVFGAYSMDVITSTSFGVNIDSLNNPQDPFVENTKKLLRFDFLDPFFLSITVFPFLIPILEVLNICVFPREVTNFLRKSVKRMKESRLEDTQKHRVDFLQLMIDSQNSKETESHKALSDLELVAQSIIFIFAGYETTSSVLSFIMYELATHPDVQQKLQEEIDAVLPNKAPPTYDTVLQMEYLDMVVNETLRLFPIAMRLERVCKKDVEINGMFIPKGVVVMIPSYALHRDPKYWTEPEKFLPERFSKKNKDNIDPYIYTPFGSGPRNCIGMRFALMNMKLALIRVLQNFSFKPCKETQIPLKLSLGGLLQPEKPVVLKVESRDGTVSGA

[12] = biological target: Cytochrome P450 2C9 (Homo sapiens, UniProt P11712)
Cytochrome P450 2C9, sequence (P11712 whole entry): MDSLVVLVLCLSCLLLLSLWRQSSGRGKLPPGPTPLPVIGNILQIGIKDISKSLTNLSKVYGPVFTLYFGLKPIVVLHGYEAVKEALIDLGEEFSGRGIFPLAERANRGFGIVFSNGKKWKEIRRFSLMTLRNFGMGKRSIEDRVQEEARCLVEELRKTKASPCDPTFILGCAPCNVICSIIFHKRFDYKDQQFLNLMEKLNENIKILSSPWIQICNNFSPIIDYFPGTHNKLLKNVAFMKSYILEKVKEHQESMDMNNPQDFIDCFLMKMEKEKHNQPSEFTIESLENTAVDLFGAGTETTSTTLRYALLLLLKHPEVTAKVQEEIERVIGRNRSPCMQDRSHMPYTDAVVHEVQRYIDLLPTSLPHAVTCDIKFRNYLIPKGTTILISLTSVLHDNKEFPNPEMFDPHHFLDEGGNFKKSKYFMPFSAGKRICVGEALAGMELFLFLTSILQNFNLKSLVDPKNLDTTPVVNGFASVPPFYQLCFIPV

[13] = biological target: Estrogen receptor beta (Homo sapiens, UniProt Q92731);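 note: recombinant ER-beta bound to coactivator SRC1 peptide in presence of estradiol agonist; inhibitors block coactivator peptide binding and lower the FRET signal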
Estrogen receptor beta, sequence (Q92731 whole entry): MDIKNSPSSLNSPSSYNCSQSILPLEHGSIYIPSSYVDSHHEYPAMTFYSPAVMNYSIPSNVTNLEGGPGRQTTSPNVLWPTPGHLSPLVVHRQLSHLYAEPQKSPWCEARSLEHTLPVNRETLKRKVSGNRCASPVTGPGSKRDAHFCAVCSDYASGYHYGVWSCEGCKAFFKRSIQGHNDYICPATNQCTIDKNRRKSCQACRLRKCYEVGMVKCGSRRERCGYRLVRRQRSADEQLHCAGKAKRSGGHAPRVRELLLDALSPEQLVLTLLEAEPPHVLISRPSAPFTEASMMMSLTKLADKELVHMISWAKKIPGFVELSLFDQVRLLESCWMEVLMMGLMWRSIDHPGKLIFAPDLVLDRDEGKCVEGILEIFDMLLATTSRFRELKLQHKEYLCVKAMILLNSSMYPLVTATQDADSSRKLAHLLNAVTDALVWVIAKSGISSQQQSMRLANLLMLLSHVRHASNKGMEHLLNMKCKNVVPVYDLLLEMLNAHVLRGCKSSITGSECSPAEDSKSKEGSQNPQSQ

[14] = biological target: T3, Protein Tat (Human immunodeficiency virus type 1 group M subtype B (isolate HXB2)(HIV-1), UniProt P04608); assay type: functional;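 note: tat binding to TAR RNA read out by fluorescence polarization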
T3 sequence (P04608 whole entry): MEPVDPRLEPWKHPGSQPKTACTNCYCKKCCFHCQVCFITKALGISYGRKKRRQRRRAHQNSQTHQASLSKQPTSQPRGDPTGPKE

[15] = cells; assay type: functional, cell-based
[16] = cells; assay type: functional, cell-based; remark: listed apart in the source
[17] = biological target: T4, DNA repair and recombination protein RAD54-like (Homo sapiens, UniProt Q92698); experiment: inhibitors of human RAD54 branch migration, confirmation, biochemical, fluorescence, cherry-picked samples, dose series (AID 651657); assay type: functional
T4 sequence (Q92698 whole entry): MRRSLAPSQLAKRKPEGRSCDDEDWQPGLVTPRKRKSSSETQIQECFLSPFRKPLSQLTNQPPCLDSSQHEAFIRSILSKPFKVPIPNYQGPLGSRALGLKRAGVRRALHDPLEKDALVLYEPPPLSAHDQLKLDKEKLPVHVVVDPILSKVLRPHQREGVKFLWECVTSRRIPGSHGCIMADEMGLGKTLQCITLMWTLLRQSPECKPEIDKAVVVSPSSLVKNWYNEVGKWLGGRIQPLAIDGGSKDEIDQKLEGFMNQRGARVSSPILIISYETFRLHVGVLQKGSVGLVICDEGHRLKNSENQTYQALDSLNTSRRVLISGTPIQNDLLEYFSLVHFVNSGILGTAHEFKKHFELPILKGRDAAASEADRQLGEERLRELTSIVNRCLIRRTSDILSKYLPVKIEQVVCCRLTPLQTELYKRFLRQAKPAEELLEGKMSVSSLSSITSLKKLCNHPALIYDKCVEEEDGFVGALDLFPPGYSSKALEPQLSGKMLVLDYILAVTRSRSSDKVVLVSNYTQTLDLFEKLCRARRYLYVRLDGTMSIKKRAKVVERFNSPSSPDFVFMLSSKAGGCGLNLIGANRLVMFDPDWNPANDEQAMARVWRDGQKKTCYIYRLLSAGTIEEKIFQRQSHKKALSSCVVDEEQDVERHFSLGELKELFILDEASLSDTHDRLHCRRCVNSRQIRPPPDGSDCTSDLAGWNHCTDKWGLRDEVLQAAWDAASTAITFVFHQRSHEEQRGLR

[18] = biological target: Kallikrein-7 (Homo sapiens, UniProt P49862); experiment: Fluorescence Intensity-based biochemical primary high throughput dose response assay to identify activators of kallikrein-7 (K7) zymogen.
Kallikrein-7, sequence (P49862 whole entry): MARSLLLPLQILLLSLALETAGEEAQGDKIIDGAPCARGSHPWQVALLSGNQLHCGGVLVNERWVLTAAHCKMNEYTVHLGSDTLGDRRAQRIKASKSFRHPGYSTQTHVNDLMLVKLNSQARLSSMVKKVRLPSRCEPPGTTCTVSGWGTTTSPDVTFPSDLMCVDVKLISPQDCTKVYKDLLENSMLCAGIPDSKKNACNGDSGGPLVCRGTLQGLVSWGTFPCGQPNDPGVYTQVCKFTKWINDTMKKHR

IC50 [1]: 3.48 µM (active)
EC50 [2]: > 53 µM (inactive)
IC50 [3]: > 20 µM (inactive)
SMILES: O=c1c2ccccc2n(Cc2ccc(F)cc2)c(=O)n1C1CCCC1

SMILES: CCOC(=O)C1CCCN(Cc2ccc(-c3ccccc3)cc2)C1 (stereo not drawn)
EC50 [4]: < 0.1 µM (active)
EC50 [5]: > 60 µM (not active)
EC50 [6]: 0.429 µM (active)

SMILES: CC1(OC(=O)C2CCCC2)C(=O)C=C2C=C3CCCCN3C=C2C1=O (stereo not drawn)
IC50 [7]: 4.28 µM (active)
IC50 [8]: 3.82 µM (active)

SMILES: O=c1cc(N2CCN(c3cccc(Cl)c3)CC2)[nH]c(=O)n1C1CCCCC1
AC50 [9]: 1.15 µM (active)
IC50 [10]: 0.0374 µM (active)
AC50 [11]: 3.55 µM (inconclusive)
AC50 [12]: 3.16 µM (inconclusive)

IC50 [1]: < 0.368 µM (active)
EC50 [2]: > 53 µM (inactive)
IC50 [3]: > 20 µM (inactive)
SMILES: CCc1nnc(NS(=O)(=O)c2ccc(NC(=S)NC(=O)/C=C/c3ccccc3)cc2)s1

SMILES: CC1(OC(=O)c2ccc(Cl)nc2)C(=O)C=C2C=C3CCCN3C=C2C1=O (stereo not drawn)
IC50 [7]: 8.11 µM (active)
IC50 [8]: 5.33 µM (active)

IC50 [13]: > 50 µM (not active)
SMILES: Cc1cc(S(=O)(=O)N(Cc2ccc(F)cc2)CC2CCCO2)ccc1-n1cnnn1 (stereo not drawn)

IC50 [13]: > 50 µM (not active)
SMILES: O=C(CSc1nnc(-c2cccnc2)n1-c1ccccc1)Nc1ccc2c(c1)OCO2

SMILES: Cc1cc(Cl)cc2c1NC(=O)[C@]21[C@@H]2C(=O)N(Cc3ccccc3)C(=O)[C@@H]2[C@@H]2CCCN21
IC50 [14]: > 100 µM (active)

SMILES: COc1cc(OC)c2nc(C)c3c(c2c1)N(c1ccc(O)cc1)CC3
EC50 [15]: > 350 µM (not active)
EC50 [4]: 2.49 µM (active)
EC50 [16]: > 350 µM (not active)
EC50 [5]: > 60 µM (not active)
AC50 [17]: 9.09 µM (active)
AC50 [11]: 10 µM (inconclusive)

EC50 [18]: 9.72 µM (active)
AC50 [12]: 35.5 µM (inconclusive)
SMILES: Cc1ccc(C(=O)Nc2ccc3nccnc3c2)cc1
